Results as given in patent US20070111965A1, “COMPOSITIONS COMPRISING LIPOXYGENASE INHIBITORS AND CYCLODEXTRIN” (priority 2005, published 2007).

Assays:
[1] = 25° C., pH range of 4 to 7, literature data; cited from earlier work
[2] = assay type: physicochemical
Description: The low solubility in water of certain N-hydroxyurea 5- and/or 12-lipoxygenase inhibitors prevents these beneficial agents from broader use than they would otherwise enjoy if aqueous formulations could be prepared at therapeutically effective concentrations. […] In addition to its poor solubility, zileuton and likely other N-hydroxyurea lipoxygenase inhibitors are predicted to be chemically unstable in aqueous solution for storage at room temperature for prolonged periods of time [Insert Reference]. Degradation is consistent with specific hydronium- or water-catalyzed hydrolysis to afford the carbamic acid, which immediately loses carbon dioxide to generate the hydroxylamine as shown below. [drawing 2]
No buffer catalysis has been observed for zileuton. Using acid- and water-catalyzed rate constants at 25° C., the pseudo first-order rate constant is determined to be approximately 7.8×10^−5 h^−1 over a pH range of about 3.5 to about 7.5. The shelf life at 10% drug loss is calculated to be 57.3 days at an optimal pH of 5.6.
Based on literature data [Alvarez, F J; Slade, R T. Kinetics and mechanism of degradation of zileuton, a potent 5-lipoxygenase inhibitor. Pharm. Res., 1992, 9(11): 1465-1473], zileuton in solution is expected to have adequate short-term stability (at least 1 month at 25° C.) over a pH range of 4 to 7.

[3] = cited from earlier work

pseudo first-order rate constant (degradation) [2]: approximately 7.8×10^−5 h^−1
shelf life at 10% drug loss ([2]; optimal pH of 5.6, 25° C.): 57.3 days
SMILES: CC(c1cc2ccccc2s1)N(O)C(N)=O (racemic) [zileuton, ((±)-1-(1-benzo[b]thien-2-ylethyl)-1-hydroxyurea]
short-term stability in solution [1]: at least 1 month
solubility in acetonitrile ([3]; acetonitrile): slightly soluble
solubility in hexane and water ([3]; hexane and water): practically insoluble
solubility in methanol and ethanol ([3]; methanol and ethanol): soluble
water solubility ([3]; water, 25° C.): 0.08 to 0.14 mg/mL
